Assay results as given in patent US20230263710A1, “ORAL CARE AGENT” (OSAKA UNIVERSITY, priority 2020, published 2023).
Like-named read-outs stand apart in the source and are kept apart here.

Assay: Lewis acidity measuring method (1): reaction rate constant of reaction between CoTPP and oxygen in the presence of a Lewis acid
Format: physicochemical

With benzethonium chloride the “kcat (reaction rate constant of reaction between CoTPP and oxygen in the presence of a Lewis acid)” value (“kcat” for short) was 0.24 M^−2 s^−1.

With benzalkonium chloride the “kcat” value (acetonitrile, saturated O2, room temperature) was 0.18 M^−2 s^−1.

With `CCCC[N+](CCCC)(CCCC)CCCC.F[P-](F)(F)(F)(F)F` [tetrabutylammonium hexafluorophosphate] the “kcat” value was greater than 0.1 M^−2 s^−1.
